Assay results: US20240226086A1, “LIQUID PHARMACEUTICAL FORMULATIONS OF QUINOLINES” (TaP Pharmaceuticals, AG, priority 2022, published 2024)
Counter-ions that a name gives are not always drawn. Like-named read-outs stand apart in the source and are kept apart here.

Columns and labels:
[1] = cited from earlier work
[2] = HCQ sulfate solubility in liquid glycerol formulations, HPLC assay for HCQ; format: physicochemical; settings: dissolution protocol of Example 1
Method: Liquid HCQ formulations. […] Step 1: 63 g of glycerol were weighed and transferred into a 50 ml beaker with magnetic stir bar and heated to 70° C. while stirred. Step 2: 10 g HCQ sulfate were weighed and slowly added to the 70° C. glycerol of Step 1 with continued stirring and with maintenance of 70° C. until a clear liquid solution was formed. Step 3: 10 g HCQ sulfate was weighed and slowly added to resultant clear liquid solution of Step 3 with continued stirring and with maintenance of 70° C. until a clear liquid solution was formed. Step 4: the resultant clear liquid solution of Step 4 was cooled to room temperature.
HPLC steps. Step 1. […] The chromatogram was recorded and used to identify any peak eluting at the retention time of major peaks. […] The chromatogram was recorded and used to identify the HCQ peak and calculate its signal to noise ratio. […] The chromatogram was recorded and used to identify HCQ and HCQ-n-oxide peaks and the resolution between those peaks was calculated. […] The chromatograms were recorded and used to calculate the average and % RSD for the HCQ peak area responses obtained from the six replicate injections of standard solution. The tailing factor was determined. […] The chromatograms were recorded and used to calculate average peak area responses of the HCQ obtained from the two replicate injections of standard check solution. The similarity factor was calculated. […]

## CCN(CCO)CCCC(C)Nc1ccnc2cc(Cl)ccc12 (centres unmarked) [HCQ, 2-[[4-[(7-Chloro-4-quinolyl)amino]pentyl]ethylamino] ethanol sulfate (1:1)]
[1]; solvent Alcohol
  Solubility, Inference as USP: Practically insoluble or slightly soluble
[1]; solvent Chloroform
  Solubility, Inference as USP: Practically insoluble or slightly soluble
[1]; solvent Dimethylformamide
  Solubility, Inference as USP: Sparingly soluble (10-33)
[1]; solvent Dimethylsulfoxide
  Solubility, Inference as USP: Insoluble or sparingly soluble
[1]; solvent Ethanol
  Solubility, Inference as USP: Sparingly soluble or insoluble
[1]; solvent Ether
  Solubility, Inference as USP: Practically insoluble or very slightly soluble
[1]; solvent Glycerol
  Solubility, Inference as USP: Very slightly soluble (0.1-1)
[2]
  HCQ dissolved in glycerol: 273 mg/mL
